# Assay results published in US20260184707A1, “PHARMACEUTICAL COMPOUNDS FOR THE TREATMENT OF COMPLEMENT MEDIATED DISORDERS” (ALEXION PHARMACEUTICALS, INC., priority 2022, published 2026).
# Biological target: T1, Human complement C1s enzyme (Homo sapiens, UniProt P09871)
# T1 construct: purified from human serum, Complement Technology, Inc; purchased Complement Technology, Inc; host or cells: human serum (plasma-derived native protein)
# T1 sequence (P09871 438-688 limits assumed): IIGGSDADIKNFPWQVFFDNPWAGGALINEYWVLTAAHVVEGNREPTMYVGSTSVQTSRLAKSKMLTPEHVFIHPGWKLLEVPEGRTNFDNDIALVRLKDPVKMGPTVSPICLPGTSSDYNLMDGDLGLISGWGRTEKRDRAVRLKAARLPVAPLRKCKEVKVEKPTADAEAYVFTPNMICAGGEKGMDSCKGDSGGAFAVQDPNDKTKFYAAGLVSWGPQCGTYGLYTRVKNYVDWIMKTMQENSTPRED
# T1 sequence (P09871 16-437 partner limits assumed): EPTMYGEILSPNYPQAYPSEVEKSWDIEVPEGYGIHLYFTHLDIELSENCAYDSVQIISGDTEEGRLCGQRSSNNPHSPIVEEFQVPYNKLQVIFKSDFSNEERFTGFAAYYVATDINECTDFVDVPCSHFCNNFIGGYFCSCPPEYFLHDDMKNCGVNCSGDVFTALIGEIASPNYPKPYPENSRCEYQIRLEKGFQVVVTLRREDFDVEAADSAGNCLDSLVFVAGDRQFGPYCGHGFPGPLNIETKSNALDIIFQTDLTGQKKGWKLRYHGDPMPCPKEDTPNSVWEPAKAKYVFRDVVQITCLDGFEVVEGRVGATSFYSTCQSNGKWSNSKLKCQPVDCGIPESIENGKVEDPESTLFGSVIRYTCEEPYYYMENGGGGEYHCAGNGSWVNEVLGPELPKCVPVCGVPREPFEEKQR
# Experiment: Human C1s enzyme assay
# Format: biochemical
# Conditions: human complement C1s enzyme 1.16 nM, substrate Z-L-Lys-SBzl, A405; read-out: IC50 (Stars)
# Outline: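 Serum-purified human C1s (1.16 nM final) preincubated 5 min at room temperature with compound in 50 mM Tris, 1 M NaCl, pH 7.5. Z-L-Lys-SBzl and DTNB added at 100 μM each; A405 recorded every 30 s. IC50 from nonlinear regression of reaction rates versus compound concentration.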
row,Compound,IC50
1,"C[C@@H](Nc1cnc(N2CCCCC2)n(CC(=O)NCc2cc3cnccc3[nH]2)c1=O)c1coc(-c2ccccc2)n1 [Compound 460, (R)-N-((1H-pyrrolo[3,2-c]pyridin-2-yl)methyl)-2-(6-oxo-5-((1-(2-phenyloxazol-4-yl)-ethyl)amino)-2-(piperidin-1-yl)pyrimidin-1(6H)-yl)acet-amide]",0.1 to 1 µM
2,"C[C@@H](Nc1cnc(N2CCOCC2)n(CC(=O)NCc2cc3cnccc3[nH]2)c1=O)c1coc(-c2ccccc2)n1 [Compound 461, (R)—N-((1H-Pyrrolo[3,2-c]pyridine-2-yl)methyl)-2-(2-morpholino-6-oxo-5-((1-(2-phenyloxazol-4-yl)ethyl)amino)pyrimidin-1(6H)-yl)acetamide]",< 0.1 µM
3,"C[C@@H](Nc1cnc(N2CCCCC2)n(CC(=O)NCc2cc3cnccc3[nH]2)c1=O)c1cnc(-c2ccccc2)s1 [Compound 462, (R)-N-((1H-pyrrolo[3,2-c]pyridin-2-yl)methyl)-2-(6-oxo-5-((1-(2-phenylthiazol-5-yl)ethyl)amino)-2-(piperidin-1-yl)pyrimidin-1(6H)-yl)acet-amide]",< 0.1 µM
4,"C[C@@H](Nc1cnc(N2CCCCC2)n(CC(=O)NCc2cc3cnccc3[nH]2)c1=O)c1csc(-c2ccccc2)n1 [Compound 463, (R)-N-((1H-pyrrolo[3,2-c]pyridin-2-yl)methyl)-2-(6-oxo-5-((1-(2-phenylthiazol-4-yl)-ethyl)amino)-2-(piperidin-1-yl)-pyrimidin-1(6H)-yl)acetamide]",0.1 to 1 µM
5,"CC(=O)N1CCN(c2ncc(N[C@H](C)c3ccc4oc5ccccc5c4c3)c(=O)n2CC(=O)NCc2cc3cnccc3[nH]2)CC1 [Compound 466, (R)-N-((1H-pyrrolo[3,2-c]pyridin-2-yl)methyl)-2-(2-(4-acetylpiperazin-1-yl)-5-((1-(dibenzo[b,d]furan-2-yl)ethyl)-amino)-6-oxopyrimidin-1(6H)-yl)acetamide]",< 0.1 µM
6,"COC[C@H]1CCCN(c2ncc(N[C@H](C)c3ccc4oc5ccccc5c4c3)c(=O)n2CC(=O)NCc2cc3cnccc3[nH]2)C1 [Compound 467, N-((1H-pyrrolo[3,2-c]pyridin-2-yl)methyl)-2-(5-(((R)-1-(dibenzo[b,d]furan-2-yl)ethyl)-amino)-2-((S)-3-(methoxy-methyl)piperidin-1-yl)-6-oxo-pyrimidin-1(6H)-yl)acetamide]",> 1 µM
7,"C[C@@H](Nc1cnc(N2CCN(C(=O)C3CC3)CC2)n(CC(=O)NCc2cc3cnccc3[nH]2)c1=O)c1ccc2oc3ccccc3c2c1 [Compound 468, (R)-N-((1H-pyrrolo[3,2-c]pyridin-2-yl)methyl)-2-(2-(4-(cyclopropanecarbonyl)piper-azin-1-yl)-5-((1-(dibenzo[b,d]furan-2-yl)ethyl)amino)-6-oxopyrimidin-1(6H)-yl)acet-amide]",0.1 to 1 µM
8,"COC[C@H]1CN(c2ncc(N[C@H](C)c3ccc4oc5ccccc5c4c3)c(=O)n2CC(=O)NCc2cc3cnccc3[nH]2)CCO1 [Compound 469, N-((1H-pyrrolo[3,2-c]pyridin-2-yl)methyl)-2-(5-(((R)-1-(dibenzo[b,d]furan-2-yl)ethyl)-amino)-2-((R)-2-(methoxy-methyl)morpholino)-6-oxo-pyrimidin-1(6H)-yl)acetamide]",0.1 to 1 µM
9,"C[C@@H](Nc1ncc(N2CCC(O)CC2)n(CC(=O)NCc2cc3cnccc3[nH]2)c1=O)c1ccc2oc3ccccc3c2c1 [Compound 470, (R)-N-((1H-pyrrolo[3,2-c]pyridin-2-yl)methyl)-2-(3-((1-(dibenzo[b,d]furan-2-yl)ethyl)-amino)-6-(4-hydroxypiperidin-1-yl)-2-oxopyrazin-1(2H)-yl)-acetamide]",< 0.1 µM
10,"C[C@@H](Nc1ncc(C2CCOCC2)n(CC(=O)NCc2cc3cnccc3[nH]2)c1=O)c1ccc2oc3ccccc3c2c1 [Compound 471, (R)—N-((1H-Pyrrolo[3,2-c]pyridine-2-yl)methyl)-2-(3-((1-(dibenzo[b,d]furan-2-yl)ethyl)amino)-2-oxo-6-(tetrahydro-2H-pyran-4-yl)pyrazin-1(2H)-yl)acetamide]",< 0.1 µM
11,"O=C(Cn1c(N2CCCCC2)cnc(NCc2nnc(-c3ccccc3)s2)c1=O)NCc1cc2cnccc2[nH]1 [Compound 472, N-((1H-pyrrolo[3,2-c]pyridin-2-yl)methyl)-2-(2-oxo-3-(((5-phenyl-1,3,4-thiadiazol-2-yl)-methyl)amino)-6-(piperidin-1-yl)pyrazin-1(2H)-yl)acetamide]",< 0.1 µM
12,"O=C(Cn1c(N2CCCCC2)cnc(NCc2cc(-c3ccccc3)no2)c1=O)NCc1cc2cnccc2[nH]1 [Compound 473, N-((1H-pyrrolo[3,2-c]pyridin-2-yl)methyl)-2-(2-oxo-3-(((3-phenylisoxazol-5-yl)methyl)-amino)-6-(piperidin-1-yl)pyr-azin-1(2H)-yl)acetamide]",< 0.1 µM
13,"Cc1cnc(CNc2ncc(N3CCCCC3)n(CC(=O)NCc3cc4cnccc4[nH]3)c2=O)o1 [Compound 474, N-((1H-pyrrolo[3,2-c]pyridin-2-yl)methyl)-2-(3-(((5-methyl-oxazol-2-yl)methyl)amino)-2-oxo-6-(piperidin-1-yl)pyr-azin-1(2H)-yl)acetamide]",< 0.1 µM
14,"C[C@@H](Nc1cnc(N2CCCCC2)n(CC(=O)NCc2cc3cnccc3[nH]2)c1=O)c1coc(-c2ccccc2F)n1 [Compound 475, (R)—N-((1H-Pyrrolo[3,2-c]pyridine-2-yl)methyl)-2-(5-((1-(2-(2-fluorophenyl)oxazol-4-yl)ethyl)amino)-6-oxo-2-(piperidin-1-yl)pyrimidin-1(6H)-yl) acetamide]",0.1 to 1 µM
15,"C[C@@H](Nc1cnc(C2CCCC2)n(CC(=O)NCc2cc3cnccc3[nH]2)c1=O)c1coc(-c2ccccc2)n1 [Compound 476, (R)-N-((1H-pyrrolo[3,2-c]pyridin-2-yl)methyl)-2-(2-cyclopentyl-6-oxo-5-((1-(2-phenyloxazol-4-yl)ethyl)-amino)pyrimidin-1(6H)-yl)-acetamide]",0.1 to 1 µM
16,"O=C(Cn1c(N2CCCCC2)cnc(NCc2cc(-c3ccccc3)ns2)c1=O)NCc1cc2cnccc2[nH]1 [Compound 477, N-((1H-pyrrolo[3,2-c]pyridin-2-yl)methyl)-2-(2-oxo-3-(((3-phenylisothiazol-5-yl)methyl)-amino)-6-(piperidin-1-yl)pyr-azin-1(2H)-yl)acetamide]",< 0.1 µM
17,"O=C(Cn1c(N2CCCCC2)cnc(NCc2noc(-c3ccccc3)n2)c1=O)NCc1cc2cnccc2[nH]1 [Compound 478, N-((1H-pyrrolo[3,2-c]pyridin-2-yl)methyl)-2-(2-oxo-3-(((5-phenyl-1,2,4-oxadiazol-3-yl)-methyl)amino)-6-(piperidin-1-yl)pyrazin-1(2H)-yl)acetamide]",< 0.1 µM
18,"O=C(Cn1c(N2CCCCC2)cnc(NCc2cc(-c3ccccc3F)on2)c1=O)NCc1cc2cnccc2[nH]1 [Compound 479, N-((1H-pyrrolo[3,2-c]pyridin-2-yl)methyl)-2-(3-(((5-(2-fluorophenyl)isoxazol-3-yl)-methyl)amino)-2-oxo-6-(piper-idin-1-yl)pyrazin-1(2H)-yl)-acetamide]",< 0.1 µM
19,"O=C(Cn1c(N2CCCCC2)cnc(NCc2noc3ccccc23)c1=O)NCc1cc2cnccc2[nH]1 [Compound 480, N-((1H-pyrrolo[3,2-c]pyridin-2-yl)methyl)-2-(3-((benzo[d]isoxazol-3-ylmethyl)amino)-2-oxo-6-(piperidin-1-yl)pyrazin-1(2H)-yl)acetamide]",< 0.1 µM
20,"C[C@@H](Nc1cnc(N2CCCC2)n(CC(=O)NCc2cc3cnccc3[nH]2)c1=O)c1coc(-c2ccccc2)n1 [Compound 481, (R)-N-((1H-pyrrolo[3,2-c]pyridin-2-yl)methyl)-2-(6-oxo-5-((1-(2-phenyloxazol-4-yl)-ethyl)amino)-2-(pyrrolidin-1-yl)pyrimidin-1(6H)-yl)acet-mide]",0.1 to 1 µM
21,"COCC(=O)N1CCN(c2ncc(N[C@H](C)c3ccc4oc5ccccc5c4c3)c(=O)n2CC(=O)NCc2cc3cnccc3[nH]2)CC1 [Compound 482, (R)-N-((1H-pyrrolo[3,2-c]pyridin-2-yl)methyl)-2-(5-((1-(dibenzo[b,d]furan-2-yl)ethyl)-amino)-2-(4-(2-methoxyacet-yl)piperazin-1-yl)-6-oxopyr-imidin-1(6H)-yl)acetamide]",< 0.1 µM
22,"Cn1cc(-c2ncc(NCc3cc4ccccc4o3)c(=O)n2CC(=O)NCc2cc3cnccc3[nH]2)cn1 [Compound 483, N-((1H-pyrrolo[3,2-c]pyridin-2-yl)methyl)-2-(5-((benzo-furan-2-ylmethyl)amino)-2-(1-methyl-1H-pyrazol-4-yl)-6-oxopyrimidin-1(6H)-yl)-acetamide]",< 0.1 µM
23,"O=C(Cn1cncc(NCc2cc(-c3ccccc3)ns2)c1=O)NCc1cc2cnccc2[nH]1 [Compound 484, N-((1H-pyrrolo[3,2-c]pyridin-2-yl)methyl)-2-(6-oxo-5-(((3-phenylisothiazol-5-yl)methyl)-amino)pyrimidin-1(6H)-yl)-acetamide]",< 0.1 µM
